Measurements reported in patent US4609730A, “7-[substituted imino-2-(2-aminothiazol-4-yl)-acetamido]-3(2,2-dihalovinyl or ethynyl)-3-cephem-4-carboxylic acid (syn isomers), having antimicrobial activities” (Fujisawa Pharmaceutical Co., Ltd., priority 1982, dated 1986).
In brackets after ≈: the same amount, converted by molar mass.

Key:
[1] = in vivo; conditions: rat, po, 100 mg/kg
Procedure: Rats anesthetized with pentobarbital were fixed in supine position, and a polyethylene cannula was inserted into the bile duct. Bile samples were collected at 0 to 3, 3 to 6, and 6 to 24 hours after oral administration of 100 mg/kg of the test antibiotic. The antibiotic levels in the bile samples were bioassayed with the standard solution prepared with M/15 phosphate buffer (pH 7.0) and the biliary recovery in 24 hours were calculated.

[2] = system: Proteus vulgaris 2; experiment: Minimal inhibitory concentration (MIC), two-fold agar-plate dilution method, Proteus vulgaris 2; type: cell-based; conditions: HI-agar, 37° C., 20 hours, 10^8 viable cells per ml
Procedure: (§1) In vitro antibacterial activity was determined by the two-fold agar-plate dilution method as described below.
(§2) One loopful of an overnight culture of each test strain in Trypticase-soy broth (10^8 viable cells per ml) was streaked on heart infusion agar (HI-agar) containing graded concentrations of representative test compound, and the minimal inhibitory concentration (MIC) was expressed in terms of μg/ml after incubation at 37° C. for 20 hours.

[3] = system: Klebsiella pneumoniae 20; experiment: Minimal inhibitory concentration (MIC), two-fold agar-plate dilution method, Klebsiella pneumoniae 20; type: cell-based; conditions: HI-agar, 37° C., 20 hours, 10^8 viable cells per ml
Procedure: as §1, §2

[4] = Urinary excretion in rats after oral administration; type: in vivo; conditions: rat, 100 mg/kg, urine 0-24 hours, bioassay, read-out: Urinary recovery in 24 hours
Procedure: Urine of rats was collected with a urine collector at 0 to 6, and 6 to 24 hours after oral administration of 100 mg/kg of the test antibiotic. The antibiotic levels in the urine samples were bioassayed with the standard solution prepared with M/15 phosphate buffer pH 7.0) and the urinary recovery in 24 hours was calculated.

[5] = system: Proteus mirabilis 18; experiment: Minimal inhibitory concentration (MIC), two-fold agar-plate dilution method, Proteus mirabilis 18; type: cell-based; conditions: HI-agar, 37° C., 20 hours, 10^8 viable cells per ml
Procedure: as §1, §2

Row | dose excreted at 24 h [1] | MIC [2] | MIC [3] | dose excreted at 24 h [4] | MIC [5] | SMILES
1 | 7.46% | 0.025 µg/mL (≈ 0.0554 µM) | 0.1 µg/mL (≈ 0.222 µM) | 20% | 0.05 µg/mL (≈ 0.111 µM) | C#CC1=C(C(=O)O)N2C(=O)C(NC(=O)/C(=N\OCC(=O)O)c3csc(N)n3)C2SC1 (stereo not drawn) [A, 7-[2-Carboxymethoxyimino-2-(2-aminothiazol-4-yl)-acetamido]-3-ethynyl-3-cephem-4-carboxylic acid (syn isomer)]
2 |  | 0.025 µg/mL (≈ 0.0523 µM) | 0.025 µg/mL (≈ 0.0523 µM) |  | 0.05 µg/mL (≈ 0.105 µM) | CO/N=C(\C(=O)NC1C(=O)N2C(C(=O)O)=C(C=C(Cl)Cl)CSC12)c1csc(N)n1 (stereo not drawn) [B, 7-[2-Methoxyimino-2-(2-aminothiazol-4-yl)acetamido]-3-(2,2-dichlorovinyl)-3-cephem-4-carboxylic acid (syn isomer)]
